Like-named read-outs stand apart in the source and are kept apart here.
Columns and labels:
Parameters in all cases: expressed in transfected cells; host or cells: HEK293T, transient
5-HT2A [1] = biological target: T1, 5-HT2A (Homo sapiens, UniProt P28223); test: cell-based; settings: for Emax: read-out: 5-HT2A Gq Emax (% 5-HT), BRET, mean ± SEM
Description: (§1) After at least 18-24 hours, transfected cells were plated in poly-lysine coated 96-well white clear bottom cell culture plates in DMEM containing 1% dialyzed FBS at a density of 25-40,000 cells in 200 μL per well and incubated overnight. After approximately 20-24 hours, media was decanted and cells were washed with 60 μL of drug buffer (1×HBSS, 20 mM HEPES, pH 7.4), followed by 60 μL of drug buffer and pre-incubated in a humidified atmosphere at 37° C. before receiving drug stimulation. Drug stimulation was induced by adding 30 μL of a solution of drug (3X) diluted in McCorvy buffer (1×HBSS, 20 mM HEPES, pH 7.4, supplemented with 0.3% BSA fatty acid free, 0.03% ascorbic acid) and plates were incubated at the indicated time and temperature. Fifteen minutes before reading, 10 μL of the RLuc substrate, either coelenterazine h for β-Arrestin recruitment BRET^1 or coelenterazine 400a for Gq dissociation BRET^2 (Prolume/Nanolight, 5 μM final concentration) was addedper well. […] The BRET ratios of fluorescence/luminescence were calculated per well and were plotted as a function of drug concentration using Graphpad Prism 8 (Graphpad Software Inc., San Diego, CA).

5-HT2A [2] = biological target: T1, 5-HT2A; test: cell-based; settings: for Emax: read-out: 5-HT2A β-arrestin Emax (% 5-HT), BRET, mean ± SEM
Description: as §1

5-HT2C = biological target: T2, 5-HT2C (Homo sapiens, UniProt P28335); test: BRET Gq dissociation, 5-HT2C; type: cell-based; settings: for Emax: read-out: 5-HT2C Gq Dissociation (BRET) EMAX ± SEM (%5-HT)
T2 sequence (P28335 33-458): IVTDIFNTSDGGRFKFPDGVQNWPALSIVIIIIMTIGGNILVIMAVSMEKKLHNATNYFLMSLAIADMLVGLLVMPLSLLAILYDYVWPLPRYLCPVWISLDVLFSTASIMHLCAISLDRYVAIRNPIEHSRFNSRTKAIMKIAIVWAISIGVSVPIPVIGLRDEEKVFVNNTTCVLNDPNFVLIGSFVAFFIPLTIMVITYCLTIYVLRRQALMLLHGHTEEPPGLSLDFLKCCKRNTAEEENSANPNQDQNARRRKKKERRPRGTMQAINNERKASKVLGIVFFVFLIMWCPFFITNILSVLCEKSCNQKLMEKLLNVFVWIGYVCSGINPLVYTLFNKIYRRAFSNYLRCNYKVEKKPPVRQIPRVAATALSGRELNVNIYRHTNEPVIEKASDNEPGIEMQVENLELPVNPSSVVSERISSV
Description: as §1

5-HT2B = 5-HT2B (Homo sapiens, UniProt P41595); test: BRET Gq dissociation, 5-HT2B; type: cell-based
Chain of 5-HT2B (P41595 whole entry): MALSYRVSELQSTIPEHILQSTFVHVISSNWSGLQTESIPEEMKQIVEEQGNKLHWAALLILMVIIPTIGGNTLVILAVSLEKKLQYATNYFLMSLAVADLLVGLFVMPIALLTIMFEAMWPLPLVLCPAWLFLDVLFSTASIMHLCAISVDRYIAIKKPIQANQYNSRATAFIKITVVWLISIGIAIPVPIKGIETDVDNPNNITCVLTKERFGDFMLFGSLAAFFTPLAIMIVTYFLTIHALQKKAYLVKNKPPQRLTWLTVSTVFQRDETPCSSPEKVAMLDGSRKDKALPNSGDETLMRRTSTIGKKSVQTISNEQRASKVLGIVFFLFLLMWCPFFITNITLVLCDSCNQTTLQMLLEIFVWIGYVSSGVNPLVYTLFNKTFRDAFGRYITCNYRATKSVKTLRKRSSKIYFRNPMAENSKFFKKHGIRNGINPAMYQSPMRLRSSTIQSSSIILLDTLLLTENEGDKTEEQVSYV
Description: After at least 18-24 hours, transfected cells were plated in poly-lysine coated 96-well white clear bottom cell culture plates in DMEM containing 1% dialyzed FBS at a density of 25-40,000 cells in 200 μL per well and incubated overnight. After approximately 20-24 hours, media was decanted and cells were washed with 60 μL of drug buffer (1×HBSS, 20 mM HEPES, pH 7.4), followed by 60 μL of drug buffer and pre-incubated in a humidified atmosphere at 37° C. before receiving drug stimulation. Drug stimulation was induced by adding 30 μL of a solution of drug (3X) diluted in McCorvy buffer (1×HBSS, 20 mM HEPES, pH 7.4, supplemented with 0.3% BSA fatty acid free, 0.03% ascorbic acid) and plates were incubated at the indicated time and temperature. Fifteen minutes before reading, 10 μL of the RLuc substrate, either coelenterazine h for β-Arrestin recruitment BRET^1 or coelenterazine 400a for Gq dissociation BRET^2 (Prolume/Nanolight, 5 μM final concentration) was addedper well. Plates were read for luminescence at 485 nm and fluorescent eYFP emission at 530 nm for BRET^1 and at 400 nm and fluorescent GFP2 emission at 510 nm for BRET2 at 1 second per well using a Mithras LB940 (Berthold). The BRET ratios of fluorescence/luminescence were calculated per well and were plotted as a function of drug concentration using Graphpad Prism 8 (Graphpad Software Inc., San Diego, CA).

[3] = BRET, mean ± SEM, read-out: 5-HT2A Gq dissociation pEC50 (converted)
[4] = BRET, mean ± SEM, read-out: 5-HT2A β-arrestin recruitment pEC50 (converted)
[5] = read-out: 5-HT2C Gq Dissociation (BRET) pEC50 ± SEM (converted)

T1 sequence (P28223 whole entry): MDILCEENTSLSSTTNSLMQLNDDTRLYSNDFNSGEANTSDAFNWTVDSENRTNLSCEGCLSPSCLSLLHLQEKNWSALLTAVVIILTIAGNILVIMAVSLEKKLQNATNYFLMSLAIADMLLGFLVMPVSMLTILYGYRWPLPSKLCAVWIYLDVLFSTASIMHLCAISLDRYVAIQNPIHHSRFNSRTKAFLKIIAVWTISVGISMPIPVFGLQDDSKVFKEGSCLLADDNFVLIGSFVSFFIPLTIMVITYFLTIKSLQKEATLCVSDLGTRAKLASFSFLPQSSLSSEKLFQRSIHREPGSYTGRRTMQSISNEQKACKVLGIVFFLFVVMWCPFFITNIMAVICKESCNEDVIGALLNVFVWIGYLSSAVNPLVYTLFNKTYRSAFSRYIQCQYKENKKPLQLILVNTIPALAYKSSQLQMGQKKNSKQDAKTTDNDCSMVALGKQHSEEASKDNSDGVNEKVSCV

Structure (SMILES)	Emax (5-HT2A [1])	Emax (5-HT2A [2])	EC50 (5-HT2A [1]; [3])	EC50 (5-HT2A [2]; [4])	Emax (5-HT2C)	EC50 (5-HT2C; [5])	5-HT2B Gq Dissociation (BRET) EMAX ± SEM (%5-HT) (5-HT2B)	5-HT2B Gq Dissociation (BRET) pEC50 ± SEM (5-HT2B)	EC50 (5-HT2A [1])	EC50 (5-HT2A [2])	EC50 (5-HT2C)	5-HT2A Gq Emax (% 5-HT) (5-HT2A [1]; BRET, mean ± SEM)	5-HT2A Gq dissociation pEC50 (5-HT2A [1]; BRET, mean ± SEM)	5-HT2A β-arrestin Emax (% 5-HT) (5-HT2A [2]; BRET, mean ± SEM)	5-HT2A β-arrestin recruitment pEC50 (5-HT2A [2]; BRET, mean ± SEM)
COc1cc(CCNCc2cccc3ccccc23)c(OC)cc1C [25D-N1-Nap (27)]	34.3 ± 2.9%	75.5 ± 2.4%	–	–	–	–	–	–	–	–	–	–	–	–	–
COc1cc(CCNCc2ccccc2-c2ccccc2)c(OC)cc1C [25D-NBPh (28)]	23.2 ± 4.8%	107 ± 4.7%	–	–	–	–	–	–	–	–	–	–	–	–	–
Brc1c2c(c(CCNCc3cccc4ccccc34)c3c1OCC3)OCC2 [(29)]	31.8 ± 1.4%	62.5 ± 2.3%	8.71 nM	1.02 nM	78.1 ± 2.1%	4.17 nM	No activity	No activity	–	–	–	–	–	–	–
COc1cc(Br)c(CCNCc2cccc3ccccc23)cc1OC [(30)]	32.3 ± 1.6%	65.1 ± 3%	42.7 nM	4.47 nM	81.4 ± 3.4%	66.1 nM	No activity	No activity	–	–	–	–	–	–	–
COc1cc(CCNCc2cccc3ccccc23)cc(OC)c1Br [(31), 2-(4-bromo-3,5-dimethoxyphenyl)-N-[(naphthalen-1-yl)-methyl]ethan-1-amine]	20.3 ± 1.9%	50.8 ± 3.4%	–	35.5 nM	80.2 ± 2.2%	41.7 nM	No activity	No activity	170 nM	–	–	–	–	–	–
COc1cc(Br)cc(OC)c1CCNCc1cccc2ccccc12 [(32)]	33 ± 1.1%	85.5 ± 2%	3.89 nM	1.05 nM	81 ± 1.6%	6.31 nM	No activity	No activity	–	–	–	–	–	–	–
COc1cc(Br)cc(OC)c1CC(C)NCc1cccc2ccccc12 (stereo not drawn) [(33)]	36.6 ± 1.1%	98.3 ± 3.3%	31.6 nM	4.9 nM	80.3 ± 2.4%	64.6 nM	No activity	No activity	–	–	–	–	–	–	–
COc1cc(Cl)ccc1CCNCc1cccc2ccccc12 [(34)]	25.2 ± 2%	83.6 ± 3.6%	–	–	75.9 ± 1.7%	38 nM	No activity	No activity	–	–	–	–	–	–	–
COc1cc(Br)c(Br)c(OC)c1CCNCc1cccc2ccccc12 [(35)]	30.2 ± 1.5%	–	3.89 nM	1.95 nM	69.8 ± 1.3%	5.5 nM	No activity	No activity	–	–	–	–	–	–	–
COc1cc(Br)ccc1CCNCc1cccc2ccccc12 [(36)]	26.3 ± 1.2%	80.2 ± 3.1%	–	–	76 ± 1.8%	24.5 nM	No activity	No activity	–	–	–	–	–	–	–
CCOc1ccc(CCNCc2cccc3ccccc23)cc1OC [(37)]	29.3 ± 1.9%	75.4 ± 2.4%	–	–	84.5 ± 2.8%	263 nM	No activity	No activity	–	–	–	–	–	–	–
COc1cc(CCNCc2cccc3ccccc23)ccc1Cl [(40)]	29.9 ± 1.8%	80.8 ± 3.8%	–	–	87.8 ± 2%	97.7 nM	No activity	No activity	–	–	–	–	–	–	–
COc1cc(Br)ccc1CCNCc1cccc(C)c1O [(41)]	68.7 ± 1.3%	86.6 ± 3.9%	2.24 nM	2.51 nM	72.2 ± 1.6%	4.9 nM	No activity	No activity	–	–	–	–	–	–	–
COc1cc(Br)cc(OC)c1CCNCc1cccc(C)c1O [(42)]	69.2 ± 1.5%	78.9 ± 3.7%	1.1 nM	0.513 nM	78.1 ± 1.6%	1.51 nM	No activity	No activity	–	–	–	–	–	–	–
COc1cc(Br)c(CCNCc2cccc(C)c2O)cc1OC [(43), 2-(((2-bromo-4,5-dimethoxyphenethyl)-amino)-methyl)-6-methylphenol]	65.4 ± 1.4%	91.7 ± 3.4%	–	–	75.4 ± 2%	–	No activity	No activity	6.46 nM	6.31 nM	20.9 nM	–	–	–	–
COc1cc(CCNCc2cccc(C)c2O)cc(OC)c1Br [(44)]	70.4 ± 1.2%	66.1 ± 2.8%	12 nM	11.2 nM	80.2 ± 2.1%	7.08 nM	No activity	No activity	–	–	–	–	–	–	–
COc1cc(Br)c(Br)c(OC)c1CCNCc1cccc(C)c1O [(45)]	70.5 ± 2%	77.5 ± 6%	2.24 nM	1.32 nM	81 ± 2.1%	1.51 nM	No activity	No activity	–	–	–	–	–	–	–
COc1cc(Cl)ccc1CC(C)NCc1cccc(C)c1O (stereo not drawn) [(46)]	67.8 ± 1.6%	72.9 ± 5.6%	4.79 nM	1.12 nM	95.5 ± 3.2%	11.5 nM	No activity	No activity	–	–	–	–	–	–	–
COc1cc(CCNCc2cccc(C)c2O)ccc1Cl [(47)]	66.9 ± 1.8%	80.5 ± 3.2%	30.9 nM	6.92 nM	98 ± 3.1%	19.5 nM	No activity	No activity	–	–	–	–	–	–	–
COc1cc(CCNC2CCc3ccccc32)c(OC)cc1C (stereo not drawn) [(83)]	50.7 ± 7%	112 ± 11.5%	6.31 nM	8.13 nM	–	–	–	–	–	–	–	–	–	–	–
COc1cc(CCNC2CCc3cccc(O)c32)c(OC)cc1C (stereo not drawn) [(84)]	71.9 ± 4.9%	113 ± 4.3%	2.69 nM	3.47 nM	–	–	–	–	–	–	–	–	–	–	–
COc1cc(CCNC2Cc3ccccc3C2)c(OC)cc1C [(85)]	53.5 ± 4.3%	70.9 ± 5.1%	17.8 nM	5.13 nM	–	–	–	–	–	–	–	–	–	–	–
COc1cc(CCN)c(OC)cc1Br [Compound 2C-B, reference compound]	–	–	–	–	–	–	97.4 ± 1.4 %5-HT	7.90 ± 0.04	–	–	–	100.8 ± 0.9 % 5-HT	8.92 ± 0.03	84.0 ± 1.0 % 5-HT	8.62 ± 0.04
CN(C)CCc1c[nH]c2ccccc12 [DMT, reference compound]	–	–	–	–	–	–	–	–	–	–	–	76 ± 2 % 5-HT	7.17 ± 0.07	64 ± 3 % 5-HT	7.12 ± 0.13
